Source: patent US20160130630A1, “METHOD FOR DETECTING CAMPYLOBACTER” (JNC CORPORATION, priority 2014, published 2016)

Experiments:
ESBL-producing bacteria = assay: growth inhibition of ESBL-producing bacteria; type: cell-based
Campylobacter bacteria = assay: growth inhibition of Campylobacter bacteria by cephamycin antibiotics; type: cell-based

CO[C@@]1(NC(=O)Cc2cccs2)C(=O)N2C(C(=O)O)=C(COC(N)=O)CS[C@@H]21 [Cefoxitin]
inhibition of growth of ESBL-producing bacteria (ESBL-producing bacteria): inhibits the growth | inhibition of growth of Campylobacter bacteria (Campylobacter bacteria): does not inhibit growth
